Holding throughout (type): physicochemical
Series [1] can be described thus: Anderson Cascade Impactor testing of Albuterol sulfate aerosol from droplet delivery device (Example B).
Procedure: The study was designed to evaluate device performance of a single Pneuma™ inhaler. A series of three (3) individual tests were conducted with a new disposable drug cartridge for each test. The testing platform utilizes an eight-stage nonviable Anderson Cascade Impactor (Thermo Fisher Scientific; Waltham, Mass.) equipped with a calibrated AALBORG model GFM47 mass flow meter (AALBORG Instruments and Controls; Orangeburg, N.Y.) for flow rate measurement.
At the conclusion of each test, the mouthpiece was rinsed with mobile phase and collected for HPLC analysis to determine the mass fraction of non-respirable aerosolized drug captured in the mouthpiece via inertial filtering. Following each test, impactor stage samples were extracted and recovered in solvent and analyzed for the active pharmaceutical ingredient (API) using a Dionex Ultimate 3000 nano-HPLC with UV detection (Thermo Scientific, Sunnyvale, Calif.).
The cascade impactor testing procedure involved fitting the mouthpiece into the Impactor USP throat with a mouthpiece connection seal. The vacuum pump supplying sample air flow to the cascade impactor was turned on and the pump control valves adjusted to supply 28.3 L/min total flow through the impactor and inhaler body during aerosol tests.
The device was connected to the impactor USB throat, turned on, and actuated ten (10) times for each test. At the conclusion of the test period, the device, impactor, and dilution air sources were turned off. The i mouthpiece was rinsed in order to extract drug, and all stages of the cascade impactor were rinsed with a quantity of appropriate solvent (HPLC mobile phase). Extracted samples were placed in labeled and sterile HPLC vials, capped, and analyzed for drug content via HPLC with UV detection. The mouthpiece was extracted of residual drug and analyzed for drug content via HPLC to measure mouthpiece drug deposition in relation to the total collected on the impactor stages.
All system flow rates and impactor sample flows were monitored throughout each test period. Following each test, the impactor slides were placed in labeled sterile Petri dishes, and impactor stages were extracted of drug using 2 ml of mobile phase applied with a calibrated micropipette. All extracted samples from the mouthpiece and impactor were placed in labeled sterile amber HPLC sample vials, and stored refrigerated at approximately 2° C. until HPLC analysis.
Impactor collection stages for all tests were rinsed with DI water and ethanol, and air dried prior to each inhaler test trial to avoid contamination. A new inhaler drug cartridge was used for each of the three individual tests.
All drug content analysis was performed using a Dionex Ultimate 3000 nano-HPLC equipped with a Dionex UVD-3000 multi-wavelength UVNIS Detector using a micro flow cell (75 um×10 mm path length, total analytical volume 44.2 nl). […] Total HPLC run time was 6 minutes per sample with approximately 5 minutes flush between each sample. Sample injection was performed with a 1 μl sample loop in full loop injection mode.
Buffer formulation contains reverseosmosis filtered deionized water with 1.13 gr of sodium 1-hexanesulfonate (Alfa Aesar) in 1200 ml of water, with 2 ml glacial acetic acid (Acros Organics) added. The mobile phase solution was mixed and filtered through a 0.45 um filter membrane. The final mobile phase is a 60:40 dilution of Buffer:MEOH.
Mean and standard deviation were calculated for all triplicate trial sets for each component of: inhaler drug fill, total delivered dose, course particle dose, course particle fraction, respirable particle dose, respirable particle fraction, fine particle dose, fine particle fraction, aerosol MMAD and GSD. The number of trials provided for 95% confidence levels for all data sets.
Series [2] in a line: Size exclusion chromatography stability study after aerosol generation with test device. An excerpt:
Alternately, to determine the stability of active agent after droplet generation, the generated stream of droplets including the active agent may be collected and […] may be employed to monitor for any changes in large molecule aggregation and protein fragment content. Soluble protein aggregates and protein fragment content may be calculated by comparing respective peak area under the SEC-HPLC curve of dispensed protein solutions with controls (solutions remaining in the device reservoir). Drug solutions for testing include Enbrel, (ENBREL® single-use prefilled syringes in 25 mg (0.51 mL of a 50 mg/mL solution of etanercept), and insulin, (Humalog, 200 units/ml, 3 ml […] is performed with a YarraTM 3 um SEC-2000 LC column 300×7.8 mm, SecurityGuard cartridge kit and SecurityGuard cartridges GFC-2000, 4×3 mm ID. Fifty microliters of Enbrel from the syringe (ENBREL® single-use prefilled syringes in 25 mg/0.51 mL of a 50 mg/mL solution of etanercept) is diluted (4:1) (4 parts, 200 mcl of the mobile phase buffer solution to 1 part, 50 mcl Enbrel from syringe). Fifty microliter of the diluted Enbrel is injected and separation was performed at a flow rate of 1.0 ml/min. The mobile phase buffer system included a PHOS. BUFF. SALINE. […] UV detection is performed at 280 nm. […] Aerosol collection and SEC is performed in a similar fashion as for the Enbrel analysis and aerosol collection. […] Fifty microliters of the collected aerosol spray is injected onto the SEC column for analysis, while 50 mcl of the […] insulin solution is injected onto the SEC column for control samples.
Background: In gel filtration, larger molecules generally elute earlier.

Series [3] in a line: Gravimetric analysis of delivered dose per actuation. Conditions: for solution mass per dose (actuation), average of five doses: ampule weighed before and after dosing. The protocol:
Gravimetric analysis was performed by weighing the Enbrel solution filled ampule before and after dosing. The average of five doses (actuations) were analyzed with an average of 4.25 mg+/−0.15 mg. The total delivered dose of Enbrel per actuation is therefore […] per actuation.
Gravimetric analysis was performed by weighing the Insulin solution filled ampule before and after dosing. The average of five doses (actuations) were analyzed with an average of 5.01 mg+/−0.53 mg. The total delivered dose of Insulin per actuation is therefore 34.8 mcg per actuation.

Series [4] is described as follows: Gel electrophoresis stability of active agent after droplet generation. An excerpt:
To determine the stability of active agent after droplet generation, the generated stream of droplets including the active agent is collected and the molecular weight of the active agent is verified using gel electrophoresis.

The mark [5] stands for this setting: Albuterol 0.5%, 28.3 lpm, 10 actuations.
The mark [6] stands for this setting: Albuterol 0.5%, 28.3 lpm, N = 30.
[7] abbreviates: Albuterol 0.5%, Anderson Cascade, 28.3 lpm, 10 actuations.
The mark [8] stands for this setting: Pre-separator, cut diam. 10 μm, Albuterol 0.5%, 28.3 lpm, 10 actuations.
Where [9] appears, read: Enbrel aerosolized, average of S1 and S2.

Values joined by “and” are separate entries in the source; they are usually repeats but may differ in a detail not shown here. Equal values may be shown once.

On to Albuterol sulfate, for which, in series [1] (setting [5]), the “Coarse Particles (>4.7 um)” value came out at 203.7 µg, the “Coarse Particules Fraction (>4.7 um)” value is 22.7%, the “Fine Particles (<0.4 um)” value is 31.0 µg and the “Fine Particule Fraction (<0.4 um)” value is 3.5%. For the same substance, in series [1] (setting [5]), the “Mouthpiece Losses” value came to 12.2%, the “Respirable Dose (0.4-4.7 um)” value was determined as 621.9 µg and the “Respirable Fraction (0.4-4.7 um)” value is given as 69.3%. Also, in series [1] (setting [6]), the “Geometric StdDev (GSD)” value amounted to 1.96 and the MMAD is given as 1.93 um. In series [1] (setting [7]), the “Mouthpiece Losses” value was 109.4 µg, the “droplets of an average diameter of less than about 5 μm” value is given as “over 75%” and the “droplets with an average diameter of less than about 4 μm” value was “over 70%”. In series [1] (FILTER stage), the “Cum. % <” value is given as 0.00% and the “Cum. % >” value is on record as 100.00%. Besides, in series [1] (setting [8]), the “Cum. % <” value turned out to be 100.00% and the “Cum. % >” value is 0.00%. The “Cum. % <” value in series [1] (stage 0, cut diam. 9 μm) is listed as 88.95%. Further, in series [1] (stage 1, cut diam. 5.8 μm), the “Cum. % <” value is 76.22% and the “Cum. % >” value was determined as 23.78%. Moreover, in series [1] (stage 2, cut diam. 4.7 μm), the “Cum. % <” value came to 71.05% and the “Cum. % >” value is listed as 28.95%. For the same substance, in series [1] (stage 3, cut diam. 3.3 μm), the “Cum. % <” value worked out at 64.29% and the “Cum. % >” value is on record as 35.71%. For the same substance, in series [1] (stage 4, cut diam. 2.1 μm), the “Cum. % <” value came out at 52.89% and the “Cum. % >” value is on record as 47.11%. In addition, in series [1] (stage 5, cut diam. 1.1 μm), the “Cum. % <” value worked out at 21.05% and the “Cum. % >” value was 78.95%. Also, in series [1] (stage 6, cut diam. 0.7 μm), the “Cum. % <” value came out at 8.47% and the “Cum. % >” value came to 91.53%. For the same substance, the “Cum. % >” value in series [1] (stage 7, cut diam. 0.4 μm) was 96.38%.
Regarding “Insulin: insulin, Humalog, 200 units/ml, 3 ml kwikpens”, in series [2] (Insulin 200 U/ml, aerosolized), the “Peak Area %, Peak 1” value was 27.881% and 28.721%; the “Peak Area %, Peak 2” value was 69.780% and 67.807%; the “Peak Area %, Peak 3” value was 2.184% and 2.797%. Moreover, in series [2] (Insulin 200 U/ml, control), the “Peak Area %, Peak 2” value came to 69.630% and the “Peak Area %, Peak 3” value worked out at 0%. Besides, in series [2] (Insulin aerosolized, average of S1 and S2), the “Peak 3, Avg.” value worked out at 2.4905. Further, the “Peak Area %, Peak 1” value in series [2] (Insulin from Kwikpen 200 U/ml, control) is listed as 29.926%. In addition, in series [2] (Insulin, test device), the “ejected dose forming a fragment which elutes at ~25 minutes” value turned out to be 2.5% and the “ejected dose structurally unchanged” value is 97.5%. Further, in series [3], the “total delivered dose per actuation” value is recorded as 34.8 mcg per actuation and the “solution mass per dose (actuation), average of five doses” value is 5.01 mg.
As for adalimumab, the “change in electrophoretic mobility (molecular weight) of post-aerosol active agent vs control” value in series [4] is given as “negligible change”.
As for etanercept [Enbrel], in series [2] (Enbrel 10 mg/ml, aerosolized), the “Peak Area %, Peak 2” value was 90.789% and 92.112%; the “Peak Area %, Peak 3” value is 0.424% and 0.361%; the “Peak Area %, Peak 4” value was 0.357% and 0.352%; the “Peak Area %, Peak 5” value is 5.130% and 3.428% and 5.123%. In series [2] (Enbrel 10 mg/ml, aerosolized with test device), the “Peak Area %, Peak 1” value was 2.796% and 3.476%. In addition, in series [2] (Enbrel 10 mg/ml, control), the “Peak Area %, Peak 2” value is 96.676% and 95.909%; the “Peak Area %, Peak 3” value is 0.373% and 0.351%; the “Peak Area %, Peak 4” value was determined as 0%; the “Peak Area %, Peak 5” value is given as 0%. In series [2] (setting [9]), the “Peak 4, Avg.” value was determined as 0.3545 and the “Peak 5, Avg.” value is listed as 4.2755. Besides, the “Peak Area %, Peak 1” value in series [2] (Enbrel diluted 4:1 (10 mg/ml), control) is 2.428% and 3.041%. Moreover, in series [2] (Enbrel, test device), the “dose forming molecular fragments with elution times of 13 and 25 minutes” value is recorded as 4.6%; the “structurally unchanged after delivering an aerosol dose” value worked out at 95.4%. In series [3], the “total delivered dose per actuation” value is on record as 42.5 mcg per actuation and the “solution mass per dose (actuation), average of five doses” value was found to be 4.25 mg. Besides, in series [4], the “change in electrophoretic mobility (molecular weight) of post-aerosol active agent vs control” value is on record as “negligible change”.

Values taken from patent publication US10525220B2, “Droplet delivery device for delivery of fluids to the pulmonary system and methods of use” (PNEUMA RESPIRATORY, INC., priority 2016, dated 2020).
